Assay results as given in patent US11034725B2, “Compositions and methods for treating cardiovascular disease” (Genentech, Inc., priority 2016, dated 2021).
Where “and” joins values, the source holds several entries; their conditions need not be identical. Equal values may be shown once. Entries after “also recorded” stand apart in the source; their conditions may differ. Read-outs that look alike come from different tables or passages of the source. Bridge positions count the residues as written; N and C are the ends. Square brackets hold non-standard residues; d marks the D form. Peptide text beside a SMILES is read from it. hArg = N=C(N)NCCCC[C@H](N)C(=O)O

Assays:
His-EGF(A)-Fc = His-EGF(A)-Fc TR-FRET counterscreen
PCSK9Δhelix [1] = molecular target: T1, PCSK9Δhelix (Homo sapiens, UniProt Q8NBP7); experiment: Phage competition ELISA; details: binding of peptide-displaying phage to PCSK9Δhelix
T1 construct: Human PCSK9 construct M1-Q692 with an engineered TEV site (residue deletion Y166, R167); made in house; host or cells: CHO
Method: The sequences of selected clones were fused to the N-terminus of M13 major coat protein (p8) using Kunkel mutagenesis method (Kunkel et al., Methods Enzymol 154, 367-82). The resulting construct was transformed to E. Coli. XL1 blue, single colony was grown in 1 mL 2YT supplemented with 50 μg/mL carbenicillin, 10 μg/mL Tetracycline and M13 KO7 helper phage at 37° C. for 2 h, Kanamycin was added to final concentration of 25 μg/mL, growth was continued at 37° C. for 6 h. The culture was transferred to 30 mL 2YT supplemented with 50 μg/mL carbenicillin and 25 μg/mL kanamycin and grown at 37° C. overnight. The next day, the phage was harvested and purified using the standard protocol (Tonikian et al. Nat Protoc. 2007; 2(6):1368-86). […] The bound phage was detected with anti-M13-HRP and the ELISA signal was read at OD450 nm. […] Sub-saturating phage concentration that gave 80% of maximum binding signal was determined by the binding curve.
IC50 measurements were performed by mixing a fixed sub-saturating concentration of peptide-displaying phage with a serial dilution of synthetic peptides in PBT buffer. […] The plates were then washed 10 times with PBT buffer and the bound phage was detected by anti-M13-HRP. […]

PCSK9Δhelix [2] = molecular target: T1, PCSK9Δhelix; experiment: Surface plasmon resonance biosensor-based affinity analysis (Example 4); type: binding; details: for Kd: Table 7, Target PCSK9Δhelix, SPR at 20° C., read-out: Kd
PCSK9Δhelix [3] = molecular target: T1, PCSK9Δhelix; experiment: PCSK9Δhelix/Ab20 TR-FRET binding assay
PCSK9 [4] = molecular target: T2, PCSK9 (Homo sapiens, UniProt Q8NBP7); experiment: Phage competition ELISA; type: binding; details: binding of peptide-displaying phage to PCSK9
How it was run: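 Fixed sub-saturating peptide-phage concentration (80% of max binding signal) mixed with serially diluted synthetic peptides in PBT, added to plates bearing immobilized biotinylated PCSK9 or PCSK9Δhelix, 1 h at room temperature. Bound phage detected with anti-M13-HRP at OD450 nm; IC50 from curve fit, 3 independent repeats.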

PCSK9 [5] = molecular target: T2, PCSK9; experiment: PCSK9/EGF(A) TR-FRET binding assay
PCSK9 [6] = molecular target: T2, PCSK9; experiment: Cell surface LDLR assay with HepG2 cells; type: cell-based; details: for EC50 / surface LDLR levels restored: HepG2 cells; for EC50: 15 μg/mL PCSK9, 4 h, FACS; for surface LDLR levels restored: maximal restoration, percent of control without PCSK9
Method: HepG2 cells (ATCC; Manassas, Va.) were seeded into 48 well plates (Corning; Corning, N.Y.) at 1×10^5 cells per well in high glucose medium (DMEM, Gibco; Carlsbad, Calif.) containing 2 mM glutamine (Sigma), penicillin/streptomycin (Gibco) and 10% FBS (Sigma; St. Louis, Mo.) and incubated overnight. Then the medium was changed to DMEM containing 10% lipoprotein deficient serum (LPDS, Sigma). After 24 h, 15 μg/mL PCSK9 was incubated with peptides or Fab33 for 30 min, added to the cells and incubated at 37° C. for 4 h. Cells were rinsed with PBS and detached using Cell Dissociation Buffer in PBS (Gibco). After centrifugation, the resuspended cells were incubated with 1:20 anti LDLR antibody (Progen Biotechnik; Heidelberg, Germany) on ice for 10 min. The samples were then washed with PBS and incubated with 1:200 diluted goat anti mouse IgG (H+L) Alexa Fluor 488 (Invitrogen; Carlsbad, Calif.) on ice for 5 min. After two PBS washes, cells were re suspended in PBS containing 2.5 μg/mL of propidium iodide and analyzed on a dual laser flow cytometer (FACScan, Becton Dickinson; Franklin Lakes, N.J.). Relative fluorescence units (RFUs) were used to quantify LDLR expression levels on the HepG2 cell surface. Cell surface LDLR levels were expressed as percent of LDLR levels measured in the absence of PCSK9 (=control).
The effect of Compound 229 on PCSK9-mediated LDL receptor degradation was measured in a HepG2 cell assay as previously described (Zhang et al., J Biol Chem. 2014 Jan. 10; 289(2):942-55). Peptides at various concentrations were preincubated with 15 μg/mL PCSK9 in the presence of 0.5% DMSO for 30 min prior to the addition to cells. After a 4 h incubation, the cells were processed for measurements of LDL receptor surface levels by flow cytometry as described (Zhang et al., J Biol Chem. 2014 Jan. 10; 289(2):942-55) (FIG. 37).

PCSK9 [7] = molecular target: T2, PCSK9; experiment: SPR affinity measurements of peptide binding (Example 8); details: Example 8, with standard error; read-out: KD, binding affinity to PCSK9 in SPR experiments
PCSK9 [8] = molecular target: T2, PCSK9; experiment: PCSK9/LDLR-Fc TR-FRET assay (LDLR assay); type: binding; details: for IC50: Table 11, LDLR-Fc, average ±S.D. of three experiments
Method: In black 1536-well assay plates (MaKO, Aurora® Microplates, Whitefish, Mont.), 40 nL of peptide in DMSO were preincubated with 2 μL His-tagged PCSK9 plus anti-His-allophycocyanin in assay buffer (50 mM Tris-HCl, pH 7.5, 150 mM NaCl, 2 mM CaCl2, 0.01% Tween®-20, 0.1% bovine gamma globulins, and protease inhibitor cocktail) for 30 min. Then 2 μL of Fc-tagged ligand and anti-Fc-europium in assay buffer were added and allowed to incubate for 2 h. The PCSK9 and ligand conditions for each assay are as follows: 10 nM C-terminal (His)8-tagged PCSK9 (“(His)8” disclosed as SEQ ID NO: 304) and 12 nM EGF(A)-Fc for the EGF(A) assay, 10 nM C-terminal (His)8-tagged PCSK9 (“(His)8” disclosed as SEQ ID NO: 304) and 2.5 nM LDLR-Fc for the LDLR assay, 1.25 nM C-terminal (His)8-tagged PCSK9Δhelix (“(His)8” disclosed as SEQ ID NO: 304) and 0.75 nM Ab20 for the Ab20 assay, and 2 nM His-EGF(A)-Fc alone for the counterscreen. In all assays, anti-His-allophycocyanin and anti-Fc-europium were used at 20 nM and 2 nM, respectively. Fluorescence was measured with excitation at 340 nm and emission at 671 nm and 618 nm. The TR-FRET ratio was calculated as fluorescence at 671 nm/fluorescence at 618 nm. The ratios were normalized to controls and plotted against peptide concentration to determine IC50 values (Screener Analyzer, Genedata, Basel, CH). The peptides were evaluated in three separate experiments per assay with 10-point titrations and n=2 per concentration. The values presented are the average ±S.D. of three independent experiments.

PCSK9 [9] = molecular target: T2, PCSK9; details: Zhang et al. 2014; cited from earlier work
LDLR ectodomain = molecular target: T3, LDLR ectodomain (Homo sapiens, UniProt P01130); details: biolayer interferometry, Lipari et al. 2012; read-out: Kd, binding to LDLR, previously reported; cited from earlier work
T3 construct: purchased R & D Systems

[10] = TR-FRET, Example 7, read-out: PCSK9Δhelix/Ab20 IC50
[11] = TR-FRET counterscreen, Table 8E, additional compounds
[12] = TR-FRET, Table 8E, additional compounds, read-out: PCSK9Δhelix/Ab20 IC50
[13] = Table 11, average ±S.D. of three experiments, read-out: Ab20 IC50
[14] = TR-FRET, Table 8E, additional compounds, read-out: PCSK9/EGF(A) IC50
[15] = Table 11, average ±S.D. of three experiments, read-out: EGF(A) IC50

Molecule	IC50 (His-EGF(A)-Fc; counterscreen, Example 7)	IC50 in phage competition ELISA (PCSK9Δhelix [1])	Kd range for PCSK9Δhelix binding (PCSK9Δhelix [2])	Kd (PCSK9Δhelix [2])	inhibition in the PCSK9Δhelix/Ab20 binding assay (PCSK9Δhelix [3])	IC50 (PCSK9Δhelix [3]; [10])	inhibition in the PCSK9/EGF(A) binding assay (PCSK9 [5])	EC50 (PCSK9 [6])	surface LDLR levels restored (PCSK9 [6])	IC50 (His-EGF(A)-Fc; [11])	IC50 (PCSK9Δhelix [3]; [12])	IC50 (PCSK9Δhelix [3]; [13])	Kd (PCSK9 [7])	inhibition of LDLR-Fc binding to PCSK9 (PCSK9 [8])	IC50 (PCSK9 [8])	IC50 (PCSK9 [5]; [14])	IC50 (PCSK9 [5]; [15])	further results
CC[C@H](C)[C@@H]1NC(=O)[C@H](CCCNC(=N)N)NC(=O)[C@H](CCC(N)=O)NC(=O)[C@H](CC(C)C)NC(=O)[C@H](CC(N)=O)NC(=O)[C@H](Cc2c[nH]c3ccccc23)NC(=O)[C@@H]2CCCN2C(=O)[C@H](CC(C)C)NC(=O)[C@H](CCCNC(=N)N)NC(=O)[C@@H](NC(=O)CNC(=O)[C@H](CO)NC(=O)CNC(=O)[C@@H](NC(=O)[C@H](Cc2c[nH]c3ccccc23)NC(=O)[C@H](CC(=O)O)NC(=O)[C@H](CC(C)C)NC(=O)[C@H](Cc2ccc(O)cc2)NC(=O)[C@H](CCC(=O)O)NC(=O)[C@H](CCC(=O)O)NC(=O)[C@H](Cc2c[nH]c3ccccc23)NC(=O)[C@H](CO)NC(=O)[C@@H](NC(=O)[C@H](Cc2ccccc2)NC(=O)[C@@H](NC(=O)[C@@H](NC(C)=O)[C@@H](C)O)C(C)C)[C@@H](C)O)C(C)C)CSSC[C@@H](C(N)=O)NC(=O)[C@@H]2CCCN2C(=O)[C@H](CC(C)C)NC(=O)CNC1=O [Compound 19] (Ac-TVFTSWEEYLDWVGSGCRLPWNLQRIGLPC-NH2; disulfide 17-30)	> 50000 nM	single digit nanomolar range	sub-nanomolar range	0.0989 nM	potent inhibitors	2 nM	potent inhibitor	~500 nM	100%									IC50 in phage competition ELISA (PCSK9 [4]; listed as Pep2-8_K9gvpep4): low nanomolar range; also recorded: single digit nanomolar range; IC50 (PCSK9 [5]; TR-FRET, Example 7, read-out: PCSK9/EGF(A) IC50): 9 nM
CC[C@H](C)[C@H](NC(=O)[C@H](CCCCNC(=N)N)NC(=O)[C@@H](NC(=O)[C@H](CC(C)C)NC(=O)[C@H](CC(N)=O)NC(=O)[C@H](Cc1c[nH]c2ccccc12)NC(=O)CNC(=O)[C@@H]1CCCN1C(=O)[C@H](Cc1ccccc1)NC(=O)[C@H](C)NC(=O)[C@H](Cc1ccccc1)NC(=O)[C@H](CO)NC(C)=O)C(C)C)C(=O)NCC(=O)N[C@@H](CC(C)C)C(=O)N[C@@H](CC(C)C)C(=O)N[C@@H](CCCNC(=N)N)C(N)=O [Compound 228] (Ac-SFAFPGWNLV[hArg]IGLLR-NH2)							inhibited			≥ 50000 nM	13000 nM	1370 ± 120 nM	2800 ± 50 nM	inhibited	30400 ± 1100 nM	1300 nM	13200 ± 800 nM	
CC[C@H](C)[C@H](NC(=O)[C@H](CCCCNC(=N)N)NC(=O)[C@@H](NC(=O)[C@H](CC(C)C)NC(=O)[C@H](CC(N)=O)NC(=O)[C@H](Cc1c[nH]c2ccccc12)NC(=O)CNC(=O)[C@@H]1CCCN1C(=O)[C@H](Cc1ccccc1)NC(=O)[C@H](CO)NC(=O)[C@H](CCC(=O)O)NC(=O)[C@H](CCSC)NC(C)=O)C(C)C)C(=O)NCC(=O)N[C@@H](CC(C)C)C(=O)N[C@@H](CC(C)C)C(=O)N[C@@H](CCCNC(=N)N)C(N)=O [Compound 229] (Ac-MESFPGWNLV[hArg]IGLLR-NH2)					inhibition		inhibited; also recorded: inhibition		≤ 70%	≥ 50000 nM	8100 nM	840 ± 80 nM	940 ± 10 nM	inhibited; also recorded: inhibition	25000 ± 800 nM	810 nM	8300 ± 100 nM	response in the His-EGF(A)-Fc counterscreen (His-EGF(A)-Fc): without interference; improvement of affinity to PCSK9Δhelix versus Compound 192 (PCSK9Δhelix [3]; Table 11): more than 6 fold; inhibition of PCSK9-mediated LDLR degradation in HepG2 cells (PCSK9 [6]): concentration-dependent manner; also recorded: concentration-dependent inhibition
Ac-TAFTSWEEYLDWV-NH2 [Pep2-8V2A]																		reduction of affinity for PCSK9 versus Pep2-8 (PCSK9 [9]): about 10 fold
Ac-TVFTSWEEYLDWVGSGDLMPWNLVRIGLLR-NH2 [Compound 20]	> 50000 nM	single digit nanomolar range	sub-nanomolar range	0.366 nM	low nanomolar concentrations	1 nM	significantly improved relative to Pep2-8	1000 to 5000 nM	100%									IC50 in phage competition ELISA (PCSK9 [4]; listed as Pep2-8_K9gvpep7): low nanomolar range; also recorded: single digit nanomolar range
wildtype PCSK9: wildtype proprotein convertase subtilisin/kexin type 9																		Kd (LDLR ectodomain): 130 nM and 170 nM
